What was measured:
PI3Kdelta = PI3Kdelta (Homo sapiens (Human), UniProt O00329); assay: HTRF PI3K biochemical assay, delta isoform; details: 0.3 nM enzyme, 100 uM ATP, 5 uM PIP2, form screened per table
Source text: (§1) HTRF PI3K Biochemical Assay to Measure Intrinsic Potency of Compound Inhibitors
(§2) The PI3-Kinase biochemical assays were developed to measure the intrinsic potency and compound dependent inhibition of the alpha, beta, delta, and gamma PI3K isoform enzymes. This assay was developed and further optimized from a kit produced by Upstate (Millipore catalog #33-047) (Millipore Sigma, Billerica Mass., USA) and has been configured for high throughput screening (HTS) and structure-activity relationship (SAR) screening. Briefly, this procedure exploits the exquisite specificity and high affinity binding of […] phosphatidyl(3,4,5)triphosphate (PIP3) to the GRP1 pleckstrin homology (PH) domain to generate the signal. In the absence of PIP3, an HTRF (Homogeneous Time-Resolved Fluorescence energy transfer) complex is formed consisting of europium (u)-labeled anti-GST, GST tagged GRP1-PH domain, biotin-PIP3 (biotinylated-PIP3) and streptavidin conjugated APC (Allophycocyanin). The native PIP3 produced by PI3-Kinase activity disrupts in a competitive manner the biotin-PIP3 from the pleckstrin homology (PH) domain, resulting in the loss of energy transfer (HTRF complex) and a decrease in the signal. The format of this assay is the same for all 4 isoforms of PI3K; the differences lie in the concentration of enzyme used to achieve robust assay window. The alpha, beta, and delta assays are run at 0.5, 1, and 0.3 nM enzymes and the gamma assay is run at 5 nM enzyme. The ATP concentration is 100 uM in the alpha, beta, and delta assays and 50 uM adenosine triphosphate (ATP) in the gamma assay. All reactions are run at 5 uM PIP2.
(§3) Compounds are serially diluted (3-fold in 100% DMSO) across a 384-well polypropylene source plated from column 3 to column 12 and column 13 to column 22, to yield 10 concentration dose response for each test compound. Columns 1, 2, 23 and 24 contain either only DMSO or pharmacological known control inhibitor. Once titrations are made, 2.5 nL of the compounds on 384 well plates are reformatted and transferred by acoustic dispense in quadruplicates to a 1536 assay plate (Greiner) to assay across all four PI3K isoform enzymes.
(§4) The PI3-Kinase biochemical assay was optimized using the HTRF kit provided by Upstate (Millipore). The assay kit contains six reagents: 1) 4× Reaction Buffer; 2) native PIP2 (substrate); 3) Stop (EDTA); 4) Detection Mix A (Streptavidin-APC); 5) Detection Mix B (Eu-labeled Anti-GST plus GST-tagged PH-domain); 6) Detection Mix C. In addition, the following items were obtained or purchased; PI3Kinase (catalog #'s alpha 14-602, beta 14-603, gamma 14-558 and delta 14-604 from Upstate Biotechnology now EMD Millipore, Mahopac, N.Y., USA), dithiothreitol (Sigma-Aldrich Corp. (St. Louis, Mo., USA) Catalog #D-5545), Adenosine-5′ triphosphate (InVitrogen (Waltham, Mass., USA), Cat#AS001A), native PIP3 (PI(3,4,5)P3, diC8, H^+, CELLSIGNALS, INC., (Columbus, Ohio, USA) Cat #907) DMSO ((Sigma-Aldrich Corp. (St. Louis, Mo., USA) Catalog #472301).
(§5) PI3Kinase Reaction Buffer is prepared by dilution the stock 1:4 with de-ionized water. DTT (DL-Dithiothreitol), phosphatidylinositol 4,5-bisphosphate (PIP2) and Biotin-PIP3 were added to 1536 assay plate at a final concentration of 5 mM, […] and 25 nM on the day of use. Enzyme addition and compound pre-incubation are initiated by the addition of 1.25 ul of PI3K (at twice its final concentration) in the 1× reaction buffer to all wells using a BioRaptr™ (Beckman Coulter, Waltham, Mass. USA). Plates are incubated at room temperature for 15 minutes. Reactions are initiated by addition of 1.25 ul of 2× substrate solution (PIP2 and ATP in 1× reaction buffer) using BioRaptr™. Plates are incubated in humidified chamber at room temperature for one hour. Reactions are quenched by addition of 0.625 uL of stop solution to all wells using the BioRaptr™. […]

PI3Kalpha = PI3Kalpha (Homo sapiens (Human), UniProt P42336); assay: HTRF PI3K biochemical assay, alpha isoform (selectivity versus delta); details: relative ratio PI3K-alpha IC50 value / PI3K-delta IC50 value
Source text: as §1, §2, §3, §4, §5

Sequence of PI3Kdelta (O00329 whole entry, canonical isoform): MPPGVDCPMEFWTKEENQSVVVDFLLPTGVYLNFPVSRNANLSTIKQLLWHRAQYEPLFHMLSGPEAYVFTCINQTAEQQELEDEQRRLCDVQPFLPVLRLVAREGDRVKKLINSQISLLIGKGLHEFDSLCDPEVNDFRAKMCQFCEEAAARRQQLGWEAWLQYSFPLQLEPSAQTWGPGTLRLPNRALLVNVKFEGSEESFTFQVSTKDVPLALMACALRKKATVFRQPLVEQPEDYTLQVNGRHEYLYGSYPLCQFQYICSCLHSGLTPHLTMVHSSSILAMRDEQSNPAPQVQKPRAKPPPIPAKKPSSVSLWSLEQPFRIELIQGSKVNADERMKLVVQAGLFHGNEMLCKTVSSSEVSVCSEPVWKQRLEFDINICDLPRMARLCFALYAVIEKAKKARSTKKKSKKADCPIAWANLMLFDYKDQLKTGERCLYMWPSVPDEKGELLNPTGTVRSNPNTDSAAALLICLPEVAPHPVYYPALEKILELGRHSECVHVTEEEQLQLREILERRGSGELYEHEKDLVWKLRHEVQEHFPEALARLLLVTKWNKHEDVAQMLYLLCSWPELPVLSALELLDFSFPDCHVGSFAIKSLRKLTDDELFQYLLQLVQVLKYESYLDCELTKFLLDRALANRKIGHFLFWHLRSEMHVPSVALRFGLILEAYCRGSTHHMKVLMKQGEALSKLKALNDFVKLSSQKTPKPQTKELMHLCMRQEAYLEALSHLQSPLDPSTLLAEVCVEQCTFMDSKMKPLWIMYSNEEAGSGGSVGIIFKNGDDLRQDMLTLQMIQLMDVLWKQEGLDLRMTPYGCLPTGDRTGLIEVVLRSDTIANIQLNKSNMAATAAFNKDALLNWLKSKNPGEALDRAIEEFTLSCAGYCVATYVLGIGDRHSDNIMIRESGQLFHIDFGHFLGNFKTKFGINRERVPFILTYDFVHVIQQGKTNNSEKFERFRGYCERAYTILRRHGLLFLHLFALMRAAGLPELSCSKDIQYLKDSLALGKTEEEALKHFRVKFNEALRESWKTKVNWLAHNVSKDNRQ
Sequence of PI3Kdelta (P27986 whole entry partner, canonical isoform): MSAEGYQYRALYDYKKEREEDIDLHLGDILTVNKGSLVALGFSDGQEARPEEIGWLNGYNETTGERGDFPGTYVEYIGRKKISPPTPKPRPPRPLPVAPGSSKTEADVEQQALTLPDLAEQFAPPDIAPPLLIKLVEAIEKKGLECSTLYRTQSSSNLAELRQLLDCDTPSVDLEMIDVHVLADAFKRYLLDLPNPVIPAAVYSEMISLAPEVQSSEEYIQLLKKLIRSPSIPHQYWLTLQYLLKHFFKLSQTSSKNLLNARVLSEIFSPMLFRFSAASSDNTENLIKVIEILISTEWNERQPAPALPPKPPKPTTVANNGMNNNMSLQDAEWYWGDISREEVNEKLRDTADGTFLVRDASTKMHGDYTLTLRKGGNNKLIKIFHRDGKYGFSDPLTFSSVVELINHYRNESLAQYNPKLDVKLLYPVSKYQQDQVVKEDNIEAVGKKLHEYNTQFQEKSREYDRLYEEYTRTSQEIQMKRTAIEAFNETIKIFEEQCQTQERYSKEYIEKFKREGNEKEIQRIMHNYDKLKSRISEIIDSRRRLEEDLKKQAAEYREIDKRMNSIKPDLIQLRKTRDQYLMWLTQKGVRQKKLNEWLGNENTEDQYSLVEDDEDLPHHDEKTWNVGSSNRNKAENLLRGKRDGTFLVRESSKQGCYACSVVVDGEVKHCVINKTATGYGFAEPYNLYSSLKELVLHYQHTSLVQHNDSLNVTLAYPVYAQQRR
Sequence of PI3Kalpha (P42336 whole entry, canonical isoform): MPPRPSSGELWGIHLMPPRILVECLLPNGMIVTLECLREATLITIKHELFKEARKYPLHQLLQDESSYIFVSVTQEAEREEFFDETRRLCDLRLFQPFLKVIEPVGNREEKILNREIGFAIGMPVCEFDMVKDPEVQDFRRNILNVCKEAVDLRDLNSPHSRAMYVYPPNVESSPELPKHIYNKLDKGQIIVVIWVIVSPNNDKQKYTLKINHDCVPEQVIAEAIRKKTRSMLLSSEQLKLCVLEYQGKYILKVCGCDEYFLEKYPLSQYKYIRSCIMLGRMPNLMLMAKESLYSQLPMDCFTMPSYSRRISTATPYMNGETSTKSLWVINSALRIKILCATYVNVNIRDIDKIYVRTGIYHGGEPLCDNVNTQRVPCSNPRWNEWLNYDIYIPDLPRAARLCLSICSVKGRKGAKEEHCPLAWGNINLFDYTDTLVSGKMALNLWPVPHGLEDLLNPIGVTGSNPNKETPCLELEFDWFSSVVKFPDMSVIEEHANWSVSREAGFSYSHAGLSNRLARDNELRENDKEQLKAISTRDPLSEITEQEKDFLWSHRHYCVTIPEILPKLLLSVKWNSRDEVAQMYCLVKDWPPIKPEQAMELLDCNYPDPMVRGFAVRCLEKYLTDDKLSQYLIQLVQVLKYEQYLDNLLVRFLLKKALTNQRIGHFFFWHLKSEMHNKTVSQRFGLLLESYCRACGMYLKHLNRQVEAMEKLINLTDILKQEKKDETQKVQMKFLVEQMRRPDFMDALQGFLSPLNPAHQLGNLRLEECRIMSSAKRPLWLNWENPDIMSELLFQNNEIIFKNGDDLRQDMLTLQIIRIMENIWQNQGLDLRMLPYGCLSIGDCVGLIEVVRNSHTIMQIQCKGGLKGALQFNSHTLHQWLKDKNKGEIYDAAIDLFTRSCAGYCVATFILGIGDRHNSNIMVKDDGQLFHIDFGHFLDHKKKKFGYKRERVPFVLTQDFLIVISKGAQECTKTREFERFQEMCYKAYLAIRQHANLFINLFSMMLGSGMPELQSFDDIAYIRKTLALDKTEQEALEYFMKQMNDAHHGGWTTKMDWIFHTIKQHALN
Sequence of PI3Kalpha (P27986 whole entry partner, canonical isoform): as the sequence (P27986 whole entry partner, canonical isoform) above

Cn1cc(-c2ncc(C#N)c(N3CC4C[C@H]3CN4c3cccc(C#N)c3)n2)cn1 (stereo in doubt) [Compound 1-1, 4-[(1S,4R)-5-(3-cyanophenyl)-2,5-diazabicyclo[2.2.1]hept-2-yl]-2-(1-methyl-1H-pyrazol-4-yl)pyrimidine-5-carbonitrile]
IC50 (PI3Kdelta): 69 nM | Selectivity versus PI3Kalpha (PI3Kalpha): >10

N#Cc1cnc(-c2cnn3ccccc23)nc1N1C[C@@H]2CC1CN2c1cccc(F)c1 (stereo in doubt) [Compound 1-2, 4-[(1R,4S)-5-(3-fluorophenyl)-2,5-diazabicyclo[2.2.1]hept-2-yl]-2-pyrazolo[1,5-a]pyridin-3-ylpyrimidine-5-carbonitrile]
IC50 (PI3Kdelta): 51 nM | Selectivity versus PI3Kalpha (PI3Kalpha): >10

N#Cc1cnc(N2Cc3cn[nH]c3C2)nc1N1CC2C[C@H]1CN2c1cccc(F)c1 (stereo in doubt) [Compound 1-3, 2-(4,6-dihydropyrrolo[3,4-c]pyrazol-5(1H)-yl)-4-[(1S,4R)-5-(3-fluorophenyl)-2,5-diazabicyclo[2.2.1]hept-2-yl]pyrimidine-5-carbonitrile]
IC50 (PI3Kdelta): 86 nM | Selectivity versus PI3Kalpha (PI3Kalpha): >10

Cn1cc(-c2ncc(C#N)c(N3CC4C[C@H]3CN4c3ccc(C(F)F)nc3)n2)cn1 (stereo in doubt) [Compound 1-4, 4-{(1S,4R)-5-[6-(difluoromethyl)pyridin-3-yl]-2,5-diazabicyclo[2.2.1]hept-2-yl}-2-(1-methyl-1H-pyrazol-4-yl)pyrimidine-5-carbonitrile]
IC50 (PI3Kdelta): 540 nM | Selectivity versus PI3Kalpha (PI3Kalpha): >10

Cn1cc(-c2ncc(C#N)c(N3CC4C[C@H]3CN4c3cccc(C(C)(C)O)c3)n2)cn1 (stereo in doubt) [Compound 1-5, 4-{(1S,4R)-5-[3-(1-hydroxy-1-methylethyl)phenyl]-2,5-diazabicyclo[2.2.1]hept-2-yl}-2-(1-methyl-1H-pyrazol-4-yl)pyrimidine-5-carbonitrile]
IC50 (PI3Kdelta): 220 nM | Selectivity versus PI3Kalpha (PI3Kalpha): >10

Cn1cc(-c2ncc(C#N)c(N3CC4C[C@H]3CN4c3cccnc3)n2)cn1 (stereo in doubt) [Compound 1-6, 2-(1-methyl-1H-pyrazol-4-yl)-4-[(1S,4R)-5-pyridin-3-yl-2,5-diazabicyclo[2.2.1]hept-2-yl]pyrimidine-5-carbonitrile]
IC50 (PI3Kdelta): 110 nM | Selectivity versus PI3Kalpha (PI3Kalpha): >10

Cn1cc(-c2ncc(C#N)c(N3CC4C[C@H]3CN4c3cccc(OCCF)c3)n2)cn1 (stereo in doubt) [Compound 1-8, 4-{(1S,4R)-5-[3-(2-fluoroethoxy)phenyl]-2,5-diazabicyclo[2.2.1]hept-2-yl}-2-(1-methyl-1H-pyrazol-4-yl)pyrimidine-5-carbonitrile]
IC50 (PI3Kdelta): 79 nM | Selectivity versus PI3Kalpha (PI3Kalpha): >10

Cn1cc(-c2ncc(C#N)c(N3CC4C[C@H]3CN4c3cccc(-n4cccc4)c3)n2)cn1 (stereo in doubt) [Compound 1-9, 2-(1-methyl-1H-pyrazol-4-yl)-4-{(1S,4R)-5-[3-(1H-pyrrol-1-yl)phenyl]-2,5-diazabicyclo[2.2.1]hept-2-yl}pyrimidine-5-carbonitrile]
IC50 (PI3Kdelta): 90 nM | Selectivity versus PI3Kalpha (PI3Kalpha): >10

Cn1cc(-c2ncc(C#N)c(N3CC4C[C@H]3CN4c3cccc([N+](=O)[O-])c3)n2)cn1 (stereo in doubt) [Compound 1-10, 2-(1-methyl-1H-pyrazol-4-yl)-4-[(1S,4R)-5-(3-nitrophenyl)-2,5-diazabicyclo[2.2.1]hept-2-yl]pyrimidine-5-carbonitrile]
Selectivity versus PI3Kalpha (PI3Kalpha): >10

Cn1cc(-c2ncc(C#N)c(N3CC4C[C@H]3CN4c3cccc(C4CC4)c3)n2)cn1 (stereo in doubt) [Compound 1-11, 4-[(1S,4R)-5-(3-cyclopropylphenyl)-2,5-diazabicyclo[2.2.1]hept-2-yl]-2-(1-methyl-1H-pyrazol-4-yl)pyrimidine-5-carbonitrile]
IC50 (PI3Kdelta): 130 nM | Selectivity versus PI3Kalpha (PI3Kalpha): >10

Cn1cc(-c2ncc(C#N)c(N3CC4C[C@H]3CN4c3cccc(C4(C)CC4)c3)n2)cn1 (stereo in doubt) [Compound 1-12, 4-{(1S,4R)-5-[3-(1-methylcyclopropyl)phenyl]-2,5-diazabicyclo[2.2.1]hept-2-yl}-2-(1-methyl-1H-pyrazol-4-yl)pyrimidine-5-carbonitrile]
IC50 (PI3Kdelta): 410 nM | Selectivity versus PI3Kalpha (PI3Kalpha): >10

CNC(=O)c1cccc(N2C[C@@H]3CC2CN3c2nc(-c3cnn(C)c3)ncc2C#N)c1 (stereo in doubt) [Compound 1-13, 3-{(1R,4S)-5-[5-cyano-2-(1-methyl-1H-pyrazol-4-yl)pyrimidin-4-yl]-2,5-diazabicyclo[2.2.1]hept-2-yl}-N-methylbenzamide]
IC50 (PI3Kdelta): 97 nM | Selectivity versus PI3Kalpha (PI3Kalpha): >10

COc1cccc(N2C[C@@H]3CC2CN3c2nc(-c3cnn(C)c3)ncc2C#N)c1 (stereo in doubt) [Compound 1-14, 4-[(1S,4R)-5-(3-methoxyphenyl)-2,5-diazabicyclo[2.2.1]hept-2-yl]-2-(1-methyl-1H-pyrazol-4-yl)pyrimidine-5-carbonitrile]
IC50 (PI3Kdelta): 71 nM | Selectivity versus PI3Kalpha (PI3Kalpha): >10

Cn1cc(-c2ncc(C#N)c(N3CC4C[C@H]3CN4c3cccc(S(C)(=O)=O)c3)n2)cn1 (stereo in doubt) [Compound 1-15, 2-(1-methyl-1H-pyrazol-4-yl)-4-{(1S,4R)-5-[3-(methylsulfonyl)phenyl]-2,5-diazabicyclo[2.2.1]hept-2-yl}pyrimidine-5-carbonitrile]
IC50 (PI3Kdelta): 27 nM | Selectivity versus PI3Kalpha (PI3Kalpha): >10

N#Cc1cnc(-c2ccnc3[nH]ccc23)nc1N1C[C@@H]2CC1CN2c1cccc(F)c1 (stereo in doubt) [Compound 1-17, 4-[(1R,4S)-5-(3-fluorophenyl)-2,5-diazabicyclo[2.2.1]hept-2-yl]-2-(1H-pyrrolo[2,3-b]pyridin-4-yl)pyrimidine-5-carbonitrile]
IC50 (PI3Kdelta): 56 nM | Selectivity versus PI3Kalpha (PI3Kalpha): >10

N#Cc1cnc(-c2cnc3[nH]ccc3c2)nc1N1C[C@@H]2CC1CN2c1cccc(F)c1 (stereo in doubt) [Compound 1-18, 4-[(1R,4S)-5-(3-fluorophenyl)-2,5-diazabicyclo[2.2.1]hept-2-yl]-2-(1H-pyrrolo[2,3-b]pyridin-5-yl)pyrimidine-5-carbonitrile]
IC50 (PI3Kdelta): 920 nM | Selectivity versus PI3Kalpha (PI3Kalpha): 8

Cc1cncc(-c2ncc(C#N)c(N3C[C@@H]4CC3CN4c3cccc(F)c3)n2)c1 (stereo in doubt) [Compound 1-19, 4-[(1R,4S)-5-(3-fluorophenyl)-2,5-diazabicyclo[2.2.1]hept-2-yl]-2-(5-methylpyridin-3-yl)pyrimidine-5-carbonitrile]
IC50 (PI3Kdelta): 290 nM | Selectivity versus PI3Kalpha (PI3Kalpha): >10

N#Cc1cnc(-c2cccc3[nH]ncc23)nc1N1C[C@@H]2CC1CN2c1cccc(F)c1 (stereo in doubt) [Compound 1-20, 4-[(1R,4S)-5-(3-fluorophenyl)-2,5-diazabicyclo[2.2.1]hept-2-yl]-2-(1H-indazol-4-yl)pyrimidine-5-carbonitrile]
IC50 (PI3Kdelta): 200 nM | Selectivity versus PI3Kalpha (PI3Kalpha): 9

Cn1cc(-c2ncc(C#N)c(N3C[C@H]4C[C@H]3CN4c3cccc([N+](=O)[O-])c3)n2)cn1 [Compound 1-10, 2-(1-methyl-1H-pyrazol-4-yl)-4-[(1S,4R)-5-(3-nitrophenyl)-2,5-diazabicyclo[2.2.1]hept-2-yl]pyrimidine-5-carbonitrile]
IC50 (PI3Kdelta): 38 nM
